Source: PMC7555349, “1,4-Disubstituted-1,2,3-Triazole Compounds Induce Ultrastructural Alterations in Leishmania amazonensis Promastigote: An in Vitro Antileishmanial and in Silico Pharmacokinetic Study” (International Journal of Molecular Sciences, 2020)
Where two headings read alike, the source gives them in different places.

Experiments:
Cytotoxicity assay (MTT) = format: cell-based, BALB/c mice; details: mouse
Description: The peritoneal macrophages were obtained from BALB/c mice elicited with 3 mL Brewer thioglycollate medium for 72 h, intraperitoneal. After euthanasia, cells were obtained by peritoneal washing with PBS, centrifuged at 4000 rpm for 5 min, and suspended in RPMI 1640 medium plus 10% FBS, 100 U/mL of penicillin and 100 µg/mL of streptomycin [50]. The cells were immediately used in experiments and maintained at 37 °C and 5% CO2.
Blanks were composed by wells without cells and wells with cells plus 1% of DMSO only. Cell viability was carried out by the modified MTT colorimetric method as described before. Tem microliters of MTT at 5 mg/mL was added to each well and incubated for two hours at 37 °C and 5% CO2. The plate was then centrifuged for five minutes at 1500 rpm, the supernatants were removed and the formazan crystals solubilized with 100 μL of DMSO in a shaker-plate for 10 min. The absorbance was determined in a spectrophotometer at a wavelength of 570 nm.

[1] = test system: Leishmania amazonensis promastigote; assay: Activity against promastigote forms (MTT); format: cell-based; details: for IC50: read-out: IC50 Promastigote
Description: Leishmania amazonensis (MHOM/BR/76/MA-76) promastigote forms of were cultured at 26 °C in Schneider’s Insect medium added with 10% fetal bovine sera (FBS), 100 U/mL of penicillin and 100 µg/mL of streptomycin. Parasite cultures with a maximum of seven in vitro passages were used. […] Blanks composed by wells without parasites and wells with parasites plus DMSO 1% only were used as controls. A modified colorimetric method with tetrazolium-dye MTT was used to evaluate parasite viability. A quantity of 10 µL of MTT (5 mg/mL) was added to each well. After five hours, 150 µL of DMSO was added to each well to dissolve the formazan crystals. Absorbance was read on a spectrophotometer at a wavelength of 570 nm. The data was normalized and the results were used to calculate the IC50 (50% inhibition of parasite growth). Miltefosine was used as a reference drug.

[2] = test system: Leishmania amazonensis intracellular amastigotes; assay: Activity against intracellular amastigote in infected peritoneal macrophages, and selectivity index; format: cell-based; details: for amastigotes per infected cell / number of amastigotes per 200 cells / parameters of infection (amastigotes per 200 cells, percentage of infected cells, amastigotes per infected cell): compared with untreated infected cells; for IC50: Leishmania amazonensis, Peritoneal macrophage, in Mus musculus, read-out: IC50 Intracellular Amastigote; for SI (selectivity index): ratio of CC50 versus the IC50 for intracellular amastigotes
Description: Activity against the intracellular amastigotes was carried out in 24-well plates with coverslips with peritoneal macrophages (5 × 10^5 cells/well). Cells were infected with L. amazonensis promastigote forms using a ratio of 10:1 parasite/cell. After 6 h after infection the cells were washed three times with PBS to remove non-internalized parasites. […] The infected and treated cells adhered to the coverslips were fixed with Bouin, stained with Giemsa’s azur-eosin-methylene blue and examined by light microscopy. […] The percentage of infected cells was determined by number of infected cells divided by two. […] The selectivity index was calculated from the ratio of CC50 versus the IC50 for intracellular amastigotes.

[3] = test system: Leishmania amazonensis promastigotes; assay: Transmission electron microscopy of treated promastigotes; format: cell-based; details: 24 h of treatment at IC50
Description: The parasites were fixed with 2.5% glutaraldehyde in a 0.1 M sodium-cacodylate buffer, pH 7.2 overnight. Then, parasites were washed three times with 0.1 M sodium-cacodylate buffer, post-fixed in a solution composed by 1% osmium tetroxide, 0.8% potassium ferrocyanide, and 5 mM calcium chloride, dehydrated in graded acetone and embedded in EPON 812.

[4] = test system: BALB/c peritoneal macrophages; assay: Nitrite quantification (Griess) in supernatant of macrophages stimulated with L. amazonensis; format: cell-based, BALB/c mice; details: compound at 18.7 μM, 48 h
Description: BALB/c peritoneal macrophages at 5 × 10^6 cells/mL were stimulated with L. amazonensis promastigotes (10:1 parasites:cell) for one hour, and treated with different concentrations of triazole compounds for 48 h. Nitrite quantification of the supernatant of the cells was performed with Griess reagent. […] The nitrite concentrations were obtained from the standard curve of sodium nitrite (100 to 0.3 μM).

[5] = BALB/c peritoneal macrophages, 24 h of treatment, MTT, read-out: CC50
[6] = L. amazonensis promastigotes, 24 h of treatment per table title, MTT
[7] = Leishmania amazonensis, 24 h, L. amazonensis promastigotes, 24 h of treatment per table title, MTT
[8] = L. amazonensis in BALB/c peritoneal macrophages, 24 h of treatment

Compound | IC50 [1, 7] | CC50 at 24 h (Cytotoxicity assay (MTT); [5]) | IC50 [1, 6] | number of amastigotes per 200 cells ([2]; 37.5 μM, 24 h) | IC50 [2, 8] | SI (selectivity index) [2] | ultrastructural alterations in promastigotes [3] | parameters of infection (amastigotes per 200 cells, percentage of infected cells, amastigotes per infected cell) ([2]; 37.5 μM, 24 h) | other results
O=Cc1ccccc1-n1cc(COc2cccc(OCc3cn(-c4ccccc4C=O)nn3)c2)nn1 [Compound 2] | < 10 µM | 248 ± 2.52 µM | 8.85 ± 3.44 µM | decreased | 37.9 ± 3.35 µM | 6.55 | increase in lipid corpuscles (white arrows), electron dense vesicles inside small vacuoles in the cytoplasm |  | amastigotes per infected cell ([2]; 37.5 μM, 24 h): decreased
C#CCOc1cccc(OCc2cn(-c3ccccc3C=O)nn2)c1 [Compound 4] | ~15 µM | 145 ± 4.1 µM | 15.7 ± 5.42 µM | statistically decreased | 150 ± 6.37 µM | 0.96 | swelling of the kinetoplast and a change in chromatin distribution | did not significantly alter the other parameters of infection | increase in IC50 value against intracellular amastigote compared to promastigote forms [2]: 9.5 fold
Cc1ccc(S(=O)(=O)N/N=C/c2ccccc2-n2cc(COc3ccccc3)nn2)cc1 [Compound 5] | < 10 µM | 58 ± 2.65 µM | 8.81 ± 3.93 µM |  | 32.3 ± 2.26 µM | 1.79 | lipid corpuscles (white arrows) (Figure 6A), extension of the kinetoplast containing granular material | reduced all the three parameters of infection | 
C(=N\Nc1ccccc1)/c1ccccc1-n1cc(COc2ccccc2)nn1 [Compound 6] | ~15 µM | 547.9 ± 3.26 µM | 14.6 ± 4.39 µM | remarkable reduction | 17.8 ± 3.26 µM | 30.81 | lipid corpuscles (white arrows) (Figure 7A), large vacuoles containing electron-dense material | altered all the three parameters of infection | amastigotes per infected cell ([2]; 18.7 μM, 24 h): still able to reduce; number of amastigotes per 200 cells ([2]; 18.7 μM, 24 h): still able to reduce; nitrite level relative to untreated infected macrophages [4]: 2.3 fold
CCCCCCCCCCCCCCCCOP(=O)([O-])OCC[N+](C)(C)C [Miltefosine, miltefosine, reference compound] |  |  |  |  |  |  |  |  | parameters of infection (amastigotes per 200 cells, percentage of infected cells, amastigotes per infected cell) ([2]; 25 and 12.5 μM, 24 h): reduction of all three parameters of infection; IC50 ([2]; 24 h): 11.6 ± 1.79 µM; CC50 at 24 h (Cytotoxicity assay (MTT); BALB/c): 153 ± 3.85 µM; IC50 ([1]; Leishmania amazonensis, 24 h): 8.56 ± 0.695 µM

Further lines, with some results ahead:

IC50 [1, 7] | Compound | CC50 at 24 h (Cytotoxicity assay (MTT); [5]) | IC50 [1, 6] | number of amastigotes per 200 cells ([2]; 37.5 μM, 24 h) | IC50 [2, 8] | SI (selectivity index) [2] | ultrastructural alterations in promastigotes [3] | parameters of infection (amastigotes per 200 cells, percentage of infected cells, amastigotes per infected cell) ([2]; 37.5 μM, 24 h) | other results
> 50 µM | O=Cc1ccccc1-n1cc(COc2ccccc2)nn1 [Compound 1] | 221 ± 4.82 µM | 53.7 ± 8.47 µM |  |  |  |  |  | 
> 50 µM | O=Cc1ccccc1-n1cc(COc2cccc(O)c2)nn1 [Compound 3] | 308 ± 4.07 µM | 50.9 ± 4.57 µM |  |  |  |  |  | 
> 50 µM | O=Cc1ccccc1-n1cc(-c2ccccc2)nn1 [Compound 7] | 412 ± 4.92 µM | 63 ± 5.88 µM |  |  |  |  |  | 
> 300 µM | OCc1ccccc1-n1cc(COc2ccccc2)nn1 [Compound 8] | > 600 µM |  |  |  |  |  |  | IC50 Promastigote [1, 6]: did not exhibit any such activity even at the maximum analyzed concentration
> 300 µM | O=c1ccc2cc(-n3cc(COc4ccccc4)nn3)ccc2o1 [Compound 10] | > 600 µM |  |  |  |  |  |  | IC50 Promastigote [1, 6]: did not exhibit any such activity even at the maximum analyzed concentration
